The values below come from patent US10934285B2, “Compounds and compositions for inhibiting the activity of SHP2” (Novartis AG, priority 2016, dated 2021).

SHP2, sequence (Q06124 whole entry): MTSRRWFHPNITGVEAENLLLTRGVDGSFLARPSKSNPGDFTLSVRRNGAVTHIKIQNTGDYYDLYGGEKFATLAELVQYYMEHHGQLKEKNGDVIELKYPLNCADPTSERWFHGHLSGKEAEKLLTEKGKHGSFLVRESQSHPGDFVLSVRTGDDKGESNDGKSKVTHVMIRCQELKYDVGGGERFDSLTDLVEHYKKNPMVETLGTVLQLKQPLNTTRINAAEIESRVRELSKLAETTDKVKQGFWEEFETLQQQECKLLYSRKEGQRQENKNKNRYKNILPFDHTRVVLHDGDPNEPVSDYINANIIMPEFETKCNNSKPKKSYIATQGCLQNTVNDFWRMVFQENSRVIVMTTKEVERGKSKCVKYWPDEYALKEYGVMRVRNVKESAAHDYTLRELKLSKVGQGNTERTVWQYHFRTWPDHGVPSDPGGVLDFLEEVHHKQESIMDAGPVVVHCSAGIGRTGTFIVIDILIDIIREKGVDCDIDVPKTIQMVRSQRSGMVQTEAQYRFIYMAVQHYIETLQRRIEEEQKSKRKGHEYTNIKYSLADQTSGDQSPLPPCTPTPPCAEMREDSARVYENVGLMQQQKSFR

For this assay, the target named is SHP2 (Homo sapiens (Human), UniProt Q06124). As to the kind of experiment: SHP2 Allosteric Inhibition Assay. Format: biochemical. The conditions noted are these: 0.5 nM SHP2 activated with 0.5 μM peptide IRS1_pY1172(dPEG8)pY1222; surrogate substrate DiFMUP; prompt fluorescence. An excerpt:
SHP2 Allosteric Inhibition Assay
SHP2 is allosterically activated through binding of bis-tyrosyl-phorphorylated peptides to its Src Homology 2 (SH2) domains. The latter activation step leads to the release of the auto-inhibitory interface of SHP2, which in turn renders the SHP2 protein tyrosine phosphatase (PTP) active and available for substrate recognition and reaction catalysis. The catalytic activity of SHP2 was monitored using the surrogate substrate DiFMUP in a prompt fluorescence assay format.
After 30-60 minutes incubation at 25° C., the surrogate substrate DiFMUP (Invitrogen, cat #D6567) was added to the reaction and incubated at 25° C. for 30 minutes. […] The inhibitor dose response curves were analyzed using normalized IC50 regression curve fitting with control based normalization.
As a reminder, the IC50 is the concentration that inhibits the measured activity by half. As for `Nc1nc(N2CCC3(CC2)COC[C@H]3N)cnc1Sc1cccc(NC(=O)c2c(O)nc3n(c2=O)CCCC3)c1Cl` [Example 26, (S)—N-(3-((3-Amino-5-(4-amino-2-oxa-8-azaspiro[4.5]decan-8-yl)pyrazin-2-yl)thio)-2-chlorophenyl)-2-hydroxy-4-oxo-6,7,8,9-tetrahydro-4H-pyrido[1,2-a]pyrimidine-3-carboxamide], the IC50 was 18 nM. With `C[C@@H]1OCC2(CCN(c3cnc(Sc4cccc(NC(=O)c5c(O)nc6n(c5=O)CCCC6)c4Cl)c(N)n3)CC2)[C@@H]1N` [Example 27, N-(3-((3-Amino-5-((3S,4S)-4-amino-3-methyl-2-oxa-8-azaspiro[4.5]decan-8-yl)pyrazin-2-yl)thio)-2-chlorophenyl)-2-hydroxy-4-oxo-6,7,8,9-tetrahydro-4H-pyrido[1,2-a]pyrimidine-3-carboxamide], half-maximal inhibition (IC50) required 23 nM. The result for `Nc1nc(N2CCC3(CC2)CC(F)(F)C[C@H]3N)cnc1Sc1cccc(NC(=O)c2c(O)nc3n(c2=O)CCCC3)c1Cl` [Example 28, (R)-N-(3-((3-amino-5-(1-amino-3,3-difluoro-8-azaspiro[4.5]decan-8-yl)pyrazin-2-yl)thio)-2-chlorophenyl)-2-hydroxy-4-oxo-6,7,8,9-tetrahydro-4H-pyrido[1,2-a]pyrimidine-3-carboxamide] reads 42 nM. Consider `CC[C@@H]1OCC2(CCN(c3cnc(Sc4cccc(NC(=O)c5c(O)nc6n(c5=O)CCCC6)c4Cl)c(N)n3)CC2)[C@@H]1N` [Example 29, N-(3-((3-amino-5-((3S,4S)-4-amino-3-ethyl-2-oxa-8-azaspiro[4.5]decan-8-yl)pyrazin-2-yl)thio)-2-chlorophenyl)-2-hydroxy-4-oxo-6,7,8,9-tetrahydro-4H-pyrido[1,2-a]pyrimidine-3-carboxamide], for which 12 nM corresponded to half-maximal inhibition (IC50). To `C[C@@H]1CC2(CCN(c3cnc(Sc4cccc(NC(=O)c5c(O)nc6n(c5=O)CCCC6)c4Cl)c(N)n3)CC2)[C@H](N)[C@H]1F` [Example 30, N-(3-((3-amino-5-((1S,2S,3R)-1-amino-2-fluoro-3-methyl-8-azaspiro[4.5]decan-8-yl)pyrazin-2-yl)thio)-2-chlorophenyl)-2-hydroxy-4-oxo-6,7,8,9-tetrahydro-4H-pyrido[1,2-a]pyrimidine-3-carboxamide] belongs 16 nM.

As for `CC1(CN)CCN(c2nnc(Sc3cccc(NC(=O)c4c(O)nc5ccccc5c4O)c3Cl)c(N)n2)CC1` [Example 31, N-(3-((5-amino-3-(4-(aminomethyl)-4-methylpiperidin-1-yl)-1,2,4-triazin-yl)thio)-2-chlorophenyl)-2,4-dihydroxyquinoline-3-carboxamide], it took 38 nM to reach half-maximal inhibition (IC50). The result for `CC1(CN)CCN(c2nnc(Sc3cccc(NC(=O)c4c(O)nc5sccn5c4=O)c3Cl)c(N)n2)CC1` [Example 32, N-(3-((5-amino-3-(4-(aminomethyl)-4-methylpiperidin-1-yl)-1,2,4-triazin-6-yl)thio)-2-chlorophenyl)-7-hydroxy-5-oxo-5H-thiazolo[3,2-a]pyrimidine-6-carboxamide] reads 8 nM; that for `CC1(CN)CCN(c2nnc(Sc3cccc(NC(=O)c4c(O)nc5ccccn5c4=O)c3Cl)c(N)n2)CC1` [Example 33, N-(3-((5-amino-3-(4-(aminomethyl)-4-methylpiperidin-1-yl)-1,2,4-triazin-6-yl)thio)-2-chlorophenyl)-2-hydroxy-4-oxo-4H-pyrido[1,2-a]pyrimidine-3-carboxamide], 10 nM. To `CC1(CN)CCN(c2nnc(Sc3cccc(NC(=O)c4c(O)nc5cnccn5c4=O)c3Cl)c(N)n2)CC1` [Example 34, N-(3-((5-amino-3-(4-(aminomethyl)-4-methylpiperidin-1-yl)-1,2,4-triazin-6-yl)thio)-2-chlorophenyl)-2-hydroxy-4-oxo-4H-pyrazino[1,2-a]pyrimidine-3-carboxamide] belongs 14 nM; to `CC1(CN)CCN(c2nnc(Sc3cccc(NC(=O)c4c(O)nc5[nH]ccn5c4=O)c3Cl)c(N)n2)CC1` [Example 35, N-(3-((5-amino-3-(4-(aminomethyl)-4-methylpiperidin-1-yl)-1,2,4-triazin-6-yl)thio)-2-chlorophenyl)-7-hydroxy-5-oxo-1,5-dihydroimidazo[1,2-a]pyrimidine-6-carboxamide], 35 nM. `CC1(CN)CCN(c2nnc(Sc3cccc(NC(=O)c4c(O)nc5n(c4=O)CCCC5)c3Cl)c(N)n2)CC1` [Example 36, N-(3-((5-amino-3-(4-(aminomethyl)-4-methylpiperidin-1-yl)-1,2,4-triazin-6-yl)thio)-2-chlorophenyl)-2-hydroxy-4-oxo-6,7,8,9-tetrahydro-4H-pyrido[1,2-a]pyrimidine-3-carboxamide] came in with an IC50 of 12 nM. To `CC1(CN)CCN(c2nnc(Sc3cccc(NC(=O)C4=C(O)NC5CCCCN5C4=O)c3Cl)c(N)n2)CC1` (stereo not drawn) [Example 37, N-(3-((5-amino-3-(4-(aminomethyl)-4-methylpiperidin-1-yl)-1,2,4-triazin-6-yl)thio)-2-chlorophenyl)-2-hydroxy-4-oxo-4,6,7,8,9,9a-hexahydro-1H-pyrido[1,2-a]pyrimidine-3-carboxamide] belongs 6 nM.

With `CC1(CN)CCN(c2nnc(Sc3cccc(NC(=O)c4c(O)nc5c6ccccc6ccn5c4=O)c3Cl)c(N)n2)CC1` [Example 39, N-(3-((5-amino-3-(4-(aminomethyl)-4-methylpiperidin-1-yl)-1,2,4-triazin-6-yl)thio)-2-chlorophenyl)-2-hydroxy-4-oxo-4H-pyrimido[2,1-a]isoquinoline-3-carboxamide], the IC50 stood at 13 nM. Turning to `CC1(CN)CCN(c2nnc(Sc3cccc(NC(=O)c4ccc5ccccn5c4=O)c3Cl)c(N)n2)CC1` [Example 40, N-(3-((5-amino-3-(4-(aminomethyl)-4-methylpiperidin-1-yl)-1,2,4-triazin-6-yl)thio)-2-chlorophenyl)-4-oxo-4H-quinolizine-3-carboxamide], 173 nM corresponded to half-maximal inhibition (IC50). To `CC1(N)CCN(c2nnc(Sc3cccc(NC(=O)c4c(O)nc5ccccn5c4=O)c3Cl)c(N)n2)CC1` [Example 41, N-(3-((5-amino-3-(4-amino-4-methylpiperidin-1-yl)-1,2,4-triazin-6-yl)thio)-2-chlorophenyl)-2-hydroxy-4-oxo-4H-pyrido[1,2-a]pyrimidine-3-carboxamide] belongs 11 nM; to `Nc1nc(N2CCC3(CCC[C@H]3N)CC2)nnc1Sc1cccc(NC(=O)c2c(O)nc3ccccn3c2=O)c1Cl` [Example 42, (R)-N-(3-((5-amino-3-(1-amino-8-azaspiro[4.5]decan-8-yl)-1,2,4-triazin-6-yl)thio)-2-chlorophenyl)-2-hydroxy-4-oxo-4H-pyrido[1,2-a]pyrimidine-3-carboxamide], 16 nM; to `Nc1nc(N2CCC3(CCC[C@H]3N)CC2)nnc1Sc1cccc(NC(=O)c2c(O)nc3n(c2=O)CCCC3)c1Cl` [Example 43, (R)-N-(3-((5-amino-3-(1-amino-8-azaspiro[4.5]decan-8-yl)-1,2,4-triazin-6-yl)thio)-2-chlorophenyl)-2-hydroxy-4-oxo-6,7,8,9-tetrahydro-4H-pyrido[1,2-a]pyrimidine-3-carboxamide], 1.5 nM. The result for `CC1(N)CCN(c2cnc(Sc3cccc(NC(=O)c4c(O)nc5n(c4=O)CCCC5)c3Cl)cn2)CC1` [Example 44, N-(3-((5-(4-amino-4-methylpiperidin-1-yl)pyrazin-2-yl)thio)-2-chlorophenyl)-2-hydroxy-4-oxo-6,7,8,9-tetrahydro-4H-pyrido[1,2-a]pyrimidine-3-carboxamide] reads 14 nM; that for `CC1(CN)CCN(c2cnc(Sc3cccc(NC(=O)c4c(O)nc5n(c4=O)CCCC5)c3Cl)cn2)CC1` [Example 45, N-(3-((5-(4-(aminomethyl)-4-methylpiperidin-1-yl)pyrazin-2-yl)thio)-2-chlorophenyl)-2-hydroxy-4-oxo-6,7,8,9-tetrahydro-4H-pyrido[1,2-a]pyrimidine-3-carboxamide], 7 nM. For the compound `CC1(N)CCN(c2nc3ccc(Sc4cccc(NC(=O)C5=C(O)CN(c6ccccc6)C5=O)c4)nc3[nH]2)CC1` [Example 46, N-(3-((2-(4-Amino-4-methylpiperidin-1-yl)-3H-imidazo[4,5-b]pyridin-5-yl)thio)phenyl)-4-hydroxy-2-oxo-1-phenyl-2,5-dihydro-1H-pyrrole-3-carboxamide], the IC50 was determined as 70 nM.

`CC1(N)CCN(c2nc3ccc(Sc4cccc(NC(=O)C5=C(O)CN(c6ccccc6)C5=O)c4Cl)nc3[nH]2)CC1` [Example 47, N-(3-((2-(4-amino-4-methylpiperidin-1-yl)-3H-imidazo[4,5-b]pyridin-5-yl)thio)-2-chlorophenyl)-4-hydroxy-2-oxo-1-phenyl-2,5-dihydro-1H-pyrrole-3-carboxamide] yielded an IC50 of 3 nM. The result for `O=C(Nc1cccc(Sc2ccc3nc(N4CCCCC4)[nH]c3n2)c1Cl)c1c(O)nc2ccccn2c1=O` [Example 48, N-(2-chloro-3-((2-(piperidin-1-yl)-3H-imidazo[4,5-b]pyridin-5-yl)thio)phenyl)-2-hydroxy-4-oxo-4H-pyrido[1,2-a]pyrimidine-3-carboxamide] reads 61 nM; that for `O=C(Nc1cccc(Sc2ccc3nc(N4CCCCC4)[nH]c3n2)c1Cl)c1c(O)c2nccnc2[nH]c1=O` [Example 49, N-(2-chloro-3-((2-(piperidin-1-yl)-3H-imidazo[4,5-b]pyridin-5-yl)thio)phenyl)-8-hydroxy-6-oxo-5,6-dihydropyrido[2,3-b]pyrazine-7-carboxamide], 36 nM. The result for `CC1(N)CCN(c2cnc(Sc3ccc(NC(=O)C4=C(O)CN(c5ccccc5)C4=O)cc3Cl)c(N)n2)CC1` [Example 50, N-(4-((3-Amino-5-(4-amino-4-methylpiperidin-1-yl)pyrazin-2-yl)thio)-3-chlorophenyl)-4-hydroxy-2-oxo-1-phenyl-2,5-dihydro-1H-pyrrole-3-carboxamide] reads 70 nM.
